In patent US7348426B1, “Substituted bicyclic heterocycles, process for their preparation and their use as antiobesity and hypocholesterolemic agents” (Dr. Reddy's Laboraties Limited, priority 1999, dated 2008):

What was measured:
[1] = system: cholesterol fed Syrian Hamsters; conditions: hamster, in vivo, po, 10 mg/kg/day
C57BL/KsJ-db/db mice = experiment: Blood sugar and triglyceride lowering in db/db mice (genetic model); assay type: in vivo
Description: Mutation in colonies of laboratory animals and different sensitivities to dietary regimens have made the development of animal models with non-insulin dependent diabetes and hyperlipidemia associated with obesity and insulin resistance possible. Genetic models such as db/db and ob/ob (Diabetes, (1982) 31(1): 1-6) mice and zucker fa/fa rats have been developed by the various laboratories for understanding the pathophysiology of disease and testing the efficacy of new antidiabetic compounds (Diabetes, (1983) 32: 830-838; Annu. Rep. Sankyo Res. Lab. (1994). 46: 1-57). The homozygous animals, C57 BL/KsJ-db/db mice developed by Jackson Laboratory, U.S., are obese, hyperglycemic, hyperinsulinemic and insulin resistant (J. Clin. Invest., (1990) 85: 962-967), whereas heterozygous are lean and normoglycemic. In db/db model, mouse progressively develops insulinopenia with age, a feature commonly observed in late stages of human type II diabetes when blood sugar levels are insufficiently controlled. The state of pancreas and its course vary according to the models. Since this model resembles that of type II diabetes mellitus, the compounds of the present invention were tested for blood sugar and triglycerides lowering activities. Male C57BL/KsJ-db/db mice of 8 to 14 weeks age, having body weight range of 35 to 60 grams, bred at Dr. Reddy's Research Foundation (DRF) animal house, were used in the experiment. The mice were provided with standard feed (National Institute of Nutrition (NIN), Hyderabad, India) and acidified water, ad libitum. The animals having more than 350 mg/dl blood sugar were used for testing. The number of animals in each group was 4. […] The control group received vehicle (dose 10 ml/kg). On 6th day the blood samples were collected one hour after administration of test compounds/vehicle for assessing the biological activity. The random blood sugar and triglyceride levels were measured by collecting blood (100 μl) through orbital sinus, using heparinised capillary in tubes containing EDTA which was centrifuged to obtain plasma. The plasma glucose and triglyceride levels were measured spectrometrically, by glucose oxidase and glycerol-3-PO4 oxidase/peroxidase enzyme (Dr. Reddy's Lab. Diagnostic Division Kits, Hyderabad, India) methods respectively. The blood sugar and triglycerides lowering activities of the test compound was calculated according to the formula. Formulae for Calculation: 1. Percent reduction in Blood sugar/triglycerides/total cholesterol were calculated according to the formula: [formula] OC=Zero day control group value OT=Zero day treated group value TC=Test day control group value TT=Test day treated group value 2. LDL and VLDL cholesterol levels were calculated according to the formula: […]

[2] = system: hypercholesterolemic Sprague Dawley rats; conditions: rat, in vivo, po, 1 mg/kg
[3] = system: Swiss albino mice and Guinea pigs; experiment: Plasma triglyceride and total cholesterol lowering activity in Swiss albino mice and Guinea pigs; assay type: in vivo; conditions: 3 mg/kg orally for 6 days; species of the table not stated (Swiss albino mice / Guinea pigs)
Experimental: C) Plasma Triglyceride and Total Cholesterol Lowering Activity in Swiss Albino Mice and Guinea Pigs Male Swiss albino mice (SAM) and male Guinea pigs were obtained from NIN and housed in DRF animal house. All these animals were maintained under 12 hour light and dark cycle at 25±1° C. Animals were given standard laboratory chow (NIN, Hyderabad. India) and water, ad libitum. […] C. Effects of fenofibrate, gemfibrozil and nicotinic acid on plasma lipoprotein levels in normal and hyperlipidemic mice. Atherosclerosis. 1988, 70: 107-114). […] Control mice were treated with vehicle (0.25% Carboxymethylcellulose; dose 10 ml/kg). […] Control animals were treated with vehicle (0.25% Carboxymethylcellulose; dose 5 ml/kg). The blood samples were collected in fed state 1 hour after drug administration on 0 and 6 day of treatment. The blood was collected from the retro-orbital sinus through heparinised capillary in EDTA containing tubes. After centrifugation, plasma sample was separated for triglyceride and total cholesterol (Wieland, O. Methods of Enzymatic analysis. Bergermeyer, H. O., Ed., 1963. 211-214; Trinder, P. Ann. Clin. Biochem. 1969, 6: 24-27). […] Percent reduction in Blood sugar/triglycerides/total cholesterol were calculated according to the formula: [formula] […] LDL and VLDL cholesterol levels were calculated according to the formula: […]

[4] = 10 mg/kg oral gavage daily for 6 days
[5] = 3 mg/kg oral gavage daily for 6 days

CCOC(Cc1ccc(OCCN2CCSc3ccccc32)cc1)C(=O)[O-].[Na+] (racemic) [Example 30, (±) 3-[4-[2(2,3-Dihydro-1,4-benzothiazin-4-yl)ethoxy]phenyl]-2-ethoxypropanoic acid, sodium salt]
Body weight Reduction (%) [1]: 18%

CCOC(Cc1ccc2cc(OCCN3CCSc4ccccc43)ccc2c1)C(=O)[O-].[Na+] (racemic) [Example 44]
Reduction in Blood Glucose Level (%) (C57BL/KsJ-db/db mice; [4]): 47% | Triglyceride Lowering (%) (C57BL/KsJ-db/db mice; [4]): 74% | HDL (%) ↑ increase [2]: 46% | LDL (%) ↓ reduction [2]: 44% | Total Cholesterol (%) ↓ reduction [2]: 42% | Triglyceride (%) ↓ reduction [2]: 50% | VLDL (%) ↓ reduction [2]: 53%

CCCCOC(Cc1ccc(OCCN2CCOc3ccccc32)cc1)C(=O)[O-].[Na+] (racemic) [Example 50, (±) 3-[4-[2-(2,3-Dihydro-1,4-benzoxazin-4-yl)ethoxy]phenyl]-2-butoxypropanoic acid, sodium salt]
Reduction in Blood Glucose Level (%) (C57BL/KsJ-db/db mice; [5]): 45% | Triglyceride Lowering (%) (C57BL/KsJ-db/db mice; [5]): 23%

CCOC(Cc1ccc(OCC2CN(Cc3ccccc3)c3ccccc3O2)cc1)C(=O)[O-].[Na+] (racemic) [Example 63, (±) 3-[4-(4-Benzyl-3,4-dihydro-1,4-benzoxazin-2-yl)methoxyphenyl]-2-ethoxy propanoic acid, sodium salt]
Triglyceride Lowering (%) [3]: 57%
